# Test results reported in patent US8530433B2, “Use of icariside II in manufacture of products for preventing or treating male or female sexual dysfunction” (Bjo-Biomed Ltd, priority 2008, dated 2013).
# Tests used:
# [1] = system: PAE-EGFR cells; assay: NOS enzyme activity in EGFR expressing PAE-EGFR cells, NOS kit; assay type: cell-based, porcine; details: PAE-EGFR cells; LNNA 10^-5 M
# Method: (§1) Porcine vascular endothelial cells (PAE) were provided by the Institute of Urology, Peking University. The determination of the effect of icariside II on NOS activity in the endothelial cell is conducted using NOS kit (Cayman Chemical company, Ann Arbor, Mich., USA). Vascular endothelial cells (PAE) were treated with different concentrations of icariside II (0, 10^−9, 10^−8, 10^−7, 10^−6, 10^−5 and 10^−4 M) (sildenafil as the control group). 180 μl lysate was added into each culture well. 20 μl supernatant was used for protein concentration assay with BCA protein kit. And, 100 μl supernatant was analyzed for NOS activity with NOS kit (Cayman Chemical company, Ann Arbor, Mich., USA). NOS activity (units/mg)=[(valueNos-measure−valueNOS-blank)÷(38.3×10^6)]×[(2.15+supernatant volume)÷(15×supernatant volume)]÷[protein concentration of each Petri dish]. 1) The EGFR gene was subcloned into pGFP plasmid to construct pGFP-EGFR expression vector. With Liposome transfection reagent (Qigen), pGFP-EGFR was transfected into PAE cells. After the selection with 1800 μg/ml of G418, a single cell clone was selected. Western blot confirms the stable expression of EGFR in the PAE-EGFR cells.
# [2] = system: Primary human corpus cavernosum smooth muscle cells (CCSMCs); assay: NOS activity in corpus cavernosum smooth muscle cells; assay type: cell-based; details: LNNA 4×10^−4 M
# Method: Primary human corpus cavernosum smooth muscle cells ([…]) were provided by the Andrology Center of Peking University. The […] of the third passage were cultured in six well plates for two days. Then the cells were treated with icariside II or the sildenafil at a concentration of 0, 10^-9, 10^-8, 10^-7, 10^-6, 10^-5 M; or treated with icariside II (0, 10^-9, 10^-8, 10^-7, 10^-6, 10^-5 M) in the presence or absence of LNNA (4×10^-4 M). The control group was cultured with DMEM only. After 24 hours, the cells were washed three times and 180 μl lysis buffer was added into each well; 60 μl cell suspension was taken for protein concentration assay with BCA protein kit; 100 μl cell suspension was taken for NOS activity test. NOS activity (units/mg protein)=[(valueNOS-measure-valueNOS-blank)÷(38.3×10^6)]×[(2.15+supernatant volume)÷(15×S supernatant volume)]÷[protein concentration in each well].
# [3] = system: Porcine vascular endothelial cells (PAE); assay: NOS enzyme activity in vascular endothelial cells (PAE), NOS kit; assay type: cell-based; details: LNNA 10^-5 M
# Method: as §1, with “dish].” for “dish]. 1) The EGFR gene was subcloned into pGFP plasmid to construct pGFP-EGFR expression vector. With Liposome transfection reagent (Qigen), pGFP-EGFR was transfected into PAE cells. After the selection with 1800 μg/ml of G418, a single cell clone was selected. Western blot confirms the stable expression of EGFR in the PAE-EGFR cells.”
compound,measurement,setting,value
"NC(=NCCC[C@H](N)C(=O)O)N[N+](=O)[O-] [LNNA, reference compound]",NOS baseline activity after treatment with NOS inhibitor,[1],3.27±0.319 u/mg
same,NOS activity after LNNA treatment,[2],0.3 units/mg protein
same,effect on the regulatory effect of icariside II on endothelial cell NOS activity,[3]; p<0.05,significantly inhibited
same,NOS baseline activity after treatment with NOS inhibitor,[3]; PAE cells,2.74±0.269 u/mg
